Data as given in patent US20200197533A1, “COMBINATION CANCER THERAPY USING CHIMERIC ANTIGEN RECEPTOR ENGINEERED NATURAL KILLER CELLS AS CHEMOTHERAPEUTIC DRUG CARRIERS” (priority 2017, published 2020).
Entries after “also recorded” stand apart in the source; their conditions may differ.

Tests used:
lymphoma cells = conditions: drug-loaded nanocapsules conjugated to murine T cells; cited from earlier work
T cell carriers = conditions: drug-loaded nanocapsules conjugated to murine T cells; cited from earlier work
NK92 cells = assay: Cell viability (XTT) assay with cMLV(PTX); assay type: cell-based, human; conditions: various concentrations of cMLV(PTX)
Method: (§1) NK92 and SKOV3 cells were seeded in 96-well plates at 2×10^4 cells per well in 10% FBS-containing media and grown at 37° C. in the presence of 5% CO2 for 6 hours. Cells were incubated with various concentrations of cMLV (PTX) as previously described (Liu, Y, et al (2014). Codelivery of doxorubicin and paclitaxel by cross-linked multilamellar liposome enables synergistic antitumor activity. Mol Pharm 11: 1651-1661) and cell viability was assessed using the Cell Proliferation Kit II (XTT assay) from Roche Applied Science (Indianapolis, Ind.) according to the manufacturer's instructions. Cell viability percentage was determined by subtracting absorbance values obtained from media-only wells from the treated wells and then normalized by the control wells containing cells without drugs.

SKOV3 cells = assay: Cell viability (XTT) assay with cMLV(PTX); assay type: cell-based; conditions: various concentrations of cMLV(PTX), compared with NK cells
Method: as §1

| SMILES | killing of lymphoma cells (lymphoma cells) | toxicity to the T cell carriers (T cell carriers) | cell viability of NK92 carrier cells exposed to PTX (NK92 cells) | cell viability of SKOV3 tumor cells exposed to PTX (SKOV3 cells) |
| --- | --- | --- | --- | --- |
| CCc1c2c(nc3ccc(O)cc13)-c1cc3c(c(=O)n1C2)COC(=O)[C@]3(O)CC [SN-38] | effectively killed lymphoma cells | not toxic to the T cell carriers |  |  |
| CC(=O)O[C@H]1C(=O)[C@@]2(C)[C@H]([C@H](OC(=O)c3ccccc3)[C@]3(O)C[C@H](OC(=O)[C@H](O)[C@@H](NC(=O)c4ccccc4)c4ccccc4)C(C)=C1C3(C)C)[C@]1(OC(C)=O)CO[C@@H]1C[C@@H]2O [PTX, paclitaxel] |  |  | not NK92 cells | more sensitive to PTX; also recorded: can kill tumor cells |
